{"source": "patent US10912819B2", "about": "“Neuroprotective peptides derived from activity-dependent neuroprotective protein for treatment of neurological diseases” (priority 2016, dated 2021)", "key": {"[1]": {"test_system": "microtubule end binding protein 1 and 3 (EB1 and EB3) comets in living N1E-115", "assay": "Live imaging of EB1/EB3 comets in N1E-115 cells carrying ADNP mutations", "assay_type": "cell-based", "conditions": "p.Tyr719*/p.Lys404Valfs*31 ADNP, 4 hours NAP treatment (10^−12M)", "from_the_text": "FIG. 10: NAP ameliorates cytoskeletal deficiencies associated with ADNP mutations. Human ADNP mutated cDNA was cloned into plasmids as described (Ivashko-Pachima et al., Molecular Psychiatry 2017, in press). The mutations cloned included the p.Tyr719* ADNP, the most common ADNP mutation (Gozes et al., Frontiers in Endocrinology, under revisions) and the p.Lys408Valfs31*, the first de novo ADNP mutation identified (reviewed in Gozes et al., J Mol Neurosci (2015) 56:751-757.\nThe effects of ADNP carried p.Tyr719*/p.Lys404Valfs*31 mutation on microtubule end binding protein 1 and 3 (EB1 and EB3) comets in living N1E-115 is shown. For experimental details see, Ivashko-Pachima et al., Molecular Psychiatry 2017, in press. (A) Live imaging of N1E-115 cells. EB1-RFP (red) co-transfected with full ADNP/p.Tyr719*/p.Lys404Valfs*31 carrying plasmids before and after 4 hours NAP treatment (10^−12M) (panel A1). […] (B-C) EB1 Quantification of average track length, comet speed, comet length and number of comets/100 μm^2 (total number of comets: ADNP (full) before treatment n=2639/1 I cells, ADNP (full) after NAP treatment n=3107/15cells, ADNP p.Tyr719* before treatment n=1910/14cells, ADNP p.Tyr719* after NAP treatment n=3990/16cells, ADNP p.Lys404Valfs*31 before treatment n=1082/6cells, ADNP p.Lys404Valfs*31 after NAP treatment n=694/5cells). […]"}, "Foxp2": {"test_system": "Foxp2", "assay": "Foxp2 mRNA expression in the tongue, quantitative real-time PCR", "assay_type": "in vivo", "conditions": "4-month-old mice treated with NAP/DD, normalized to Gapdh; increased in Adnp-deficient mice", "description": "(B) Foxp2 (the language-linked gene) expression in the tongue is increased in Adnp-deficient mice and is normalized by NAP. Tongue total RNA was extracted from 4-month-old mice (treated with NAP/DD as above) and analyzed for Foxp2 and Gapdh mRNA expression by quantitative real-time PCR (n=3-7 animals per experimental group). Gapdh served as a normalizing transcript. […] Two-way ANOVA analysis was performed using SigmaPlot. Sexual dichotomy determined by t-test analysis was also observed for the increased Foxp2 expression between Adnp males and females (**p<0.01).\n(§1) Quantitative reverse transcription real time polymerase chain reaction (RT-PCR) was performed as before (18, 37)."}, "schizophrenia patients": {"test_system": "schizophrenia patients", "conditions": "clinical study; cited from earlier work"}, "Adnp^+/− mice [2]": {"test_system": "Adnp^+/− mice", "assay": "Social memory test", "assay_type": "in vivo", "description": "FIG. 3. NAP treatment increases social memory. Animal performance is shown. (A, animals were as in FIG. 2A,B; n=9-12 per group). Data are expressed as mean±SEM total time (sec) spent exploring mice designated by relative discrimination index (D2=(b−a)/(a+b); b=time sniffing novel mouse, a=time sniffing familiar mouse). An empty wire cup and a cup containing target mouse (“familiar”) were placed in the center of the right or left chamber. After 3 hours, a novel mouse was put inside the empty cup, while the other cup contained the familiar mouse. The Adnp^+/− mice spent less time in exploring the novel mouse, as compared to Adnp^+/+ mice.\n(§2) Experiments performed as we described in Malishkevich et al., 2015 (37) and Amram et al., Mol Psychiatry. 2016 October; 21(10):1467-76 (7). 3-6 month-old male mice were used, drug application (0.5 μg/5 μl/mouse) was once daily, for one month and then behavioral assays were initiated together with drug application. In experiments with the vehicle termed DD (NAP-benzalkonium), drug application was at 2 months of age and continued as above. Open field experiments (16, 17) and elevated plus maze evaluations (18) were carried out as before."}, "Akap6": {"test_system": "Akap6", "assay": "Hippocampal Akap6 mRNA expression, quantitative real-time PCR", "assay_type": "in vivo", "conditions": "7.5-month-old mice treated with NAP/CB, normalized to Hprt", "description": "In females, NAP regulates genes deregulated with ADNP mutation in the hippocampus. […] Sexual dichotomy determined by t-test analysis was also observed for Akap6 and Chl1 expression between Adnp^+/− males and females (#p<0.05, ##p<0.01, ###p<0.001).\nas §1"}, "[3]": {"test_system": "individuals suffering from progressive supranuclear palsy (PSP)", "conditions": "30 mg twice daily, changed formulation; cited from earlier work"}, "[4]": {"test_system": "amnestic mild cognitive impairment patients", "conditions": "clinical study; cited from earlier work"}, "Adnp^+/− mice [5]": {"test_system": "Adnp^+/− mice", "assay": "Elevated plus maze test", "assay_type": "in vivo", "conditions": "male mice, 5 min, NAP new formulation (CB); NAP-treated vs Adnp^+/− p<0.001", "description": "FIG. 4. […] The relative time spent in the open/closed arms for 5 min is presented (n=9-12 per group). Data are expressed as mean±SEM. D2 calculates the exploration time of the open arms (a) and the exploration time of the closed arms (b).\nas §2\nExperiments were performed as described (18), assessing the different times spent in open arms (indicative of exploratory behavior) versus closed arms (indicative of anxious behavior) in the elevated plus maze (FIG. 4)."}, "[6]": {"conditions": "5-month-old mice, 0.5 μg NAP/mouse/day intranasal in CB, 8 weeks, NAP vs vehicle p<0.05"}}, "note": "“Also recorded” adds a separate entry of the source."}
{"smiles": "CC[C@H](C)[C@H](NC(=O)[C@H](CO)NC(=O)[C@@H](NC(=O)[C@@H]1CCCN1C(=O)[C@H](C)NC(=O)[C@@H](N)CC(N)=O)C(C)C)C(=O)N1CCC[C@H]1C(=O)N[C@@H](CCC(N)=O)C(=O)O", "note": "[NAP]", "values": [{"measurement": "changes in microtubule dynamics (EB1/EB3 comets) caused by ADNP mutations", "setting": "[1]", "result": "ameliorated, in part"}, {"measurement": "Foxp2 expression in the tongue, females", "setting": "Foxp2", "result": "decreasing it"}, {"measurement": "Foxp2 expression in the tongue, males", "setting": "Foxp2", "result": "normalizing it"}, {"measurement": "functional activities of daily living", "setting": "schizophrenia patients", "result": "protection of functional activities of daily living"}, {"measurement": "social memory, females", "setting": "Adnp^+/− mice [2]; 2-month-old mice, 0.5 μg NAP/mouse/day intranasal in DD, 7 weeks, NAP vs vehicle p<0.05", "result": "significant difference"}, {"measurement": "social memory, females", "setting": "Adnp^+/− mice [2]; [6]", "result": "significant difference"}, {"measurement": "social memory, males", "setting": "Adnp^+/− mice [2]; [6]", "result": "significant difference"}, {"measurement": "social memory (relative discrimination index novel vs familiar mouse)", "setting": "Adnp^+/− mice [2]; male mice 6-9 months, NAP in CB intranasal, FIG. 3A, NAP vs vehicle p<0.001", "result": "improved social memory"}, {"measurement": "hippocampal Akap6 expression, females, NAP-treated vs vehicle-treated Adnp^+/− mice", "setting": "Akap6", "result": "ameliorated; also recorded: significantly increased expression"}, {"measurement": "efficacy in PSP", "setting": "[3]", "result": "did not show efficacy"}, {"measurement": "cognitive scores", "setting": "[4]", "result": "increase in cognitive scores"}, {"measurement": "increased anxiety: relative time spent in open/closed arms", "setting": "Adnp^+/− mice [5]", "result": "ameliorated"}]}
